# Measured values published in US12084481B2 (priority 2016, dated 2024).
# Assays:
# H^+ currents = details: cited from earlier work
# Hv1 channels = Hv1 channels (Homo sapiens, UniProt Q96D96); details: cited from earlier work
# human blood cells = type: cell-based; details: 100 μM
# hHv1 = hHv1 (Homo sapiens, UniProt Q96D96); type: cell-based
# hHv1, sequence (Q96D96 whole entry): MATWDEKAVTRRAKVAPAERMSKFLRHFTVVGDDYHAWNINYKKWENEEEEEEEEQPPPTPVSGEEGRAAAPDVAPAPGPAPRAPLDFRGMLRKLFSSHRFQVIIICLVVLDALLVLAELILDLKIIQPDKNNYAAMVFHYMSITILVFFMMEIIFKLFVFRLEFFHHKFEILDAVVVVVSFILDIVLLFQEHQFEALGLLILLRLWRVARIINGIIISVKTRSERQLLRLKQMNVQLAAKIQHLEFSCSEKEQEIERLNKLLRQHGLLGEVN
# Hv1 channels, sequence (Q96D96 whole entry): as above
compound,measurement,setting,value
Nc1ccncc1 [4-aminopyridine],effect on H^+ currents,H^+ currents,block H^+ currents
COc1ccc(CCN(C)CCCC(C#N)(c2cc(OC)c(OC)c(OC)c2)C(C)C)cc1OC (stereo not shown) [D600],effect on H^+ currents,H^+ currents,block H^+ currents
O=C(O[C@@H]1Cc2c(O)cc(O)cc2O[C@@H]1c1cc(O)c(O)c(O)c1)c1cc(O)c(O)c(O)c1 [EGCG],effect on H^+ currents,H^+ currents,block H^+ currents
N=C(N)NC(=O)c1nc(Cl)c(N)nc1N [amiloride],effect on H^+ currents,H^+ currents,block H^+ currents
CN(C)CCC=C1c2ccccc2CCc2ccccc21 [amitryptiline],effect on H^+ currents,H^+ currents,block H^+ currents
CCCCC/C=C\C/C=C\C/C=C\C/C=C\CCCC(=O)O [arachidonic acid],effect on Hv1 proton currents,Hv1 channels,enhance Hv1 proton currents
CNCCCN1c2ccccc2CCc2ccccc21 [desipramine],effect on H^+ currents,H^+ currents,block H^+ currents
COc1ccc2c(c1)[C@]13CCCC[C@@H]1[C@H](C2)N(C)CC3 [dextromethorphan],effect on H^+ currents,H^+ currents,block H^+ currents
CNCCC(Oc1ccc(C(F)(F)F)cc1)c1ccccc1 (stereo not shown) [fluoxetine],effect on H^+ currents,H^+ currents,block H^+ currents
CN(C)CCCN1c2ccccc2CCc2ccccc21 [imipramine],effect on H^+ currents,H^+ currents,block H^+ currents
CCCCCCCC/C=C\CCCCCCCC(=O)O [oleic acid],effect on Hv1 proton currents,Hv1 channels,enhance Hv1 proton currents
COc1ccc(CCN(C)CCCC(C#N)(c2ccc(OC)c(OC)c2)C(C)C)cc1OC (stereo not shown) [verapamil],effect on H^+ currents,H^+ currents,block H^+ currents
[Zn] [zinc],production of ROS,human blood cells,blocks ROS production to background (control) levels
ECRYLFGGCKTTSDCCKHLGCKFRDKYCAWDFTFS [hanatoxin],concentrations inhibiting Hv1,Hv1 channels,low micromolar
GCKGFGDSCADSDDCCETFHCKWVFFTSKFMCRRVWGKD [A6],Activator/Inhibitor,hHv1,ACTIVATOR
GCLGDKCADSDDCCETFHCKWVFFTSKFMCRRVWGKD [B1],Activator/Inhibitor,hHv1,ACTIVATOR
